Our source for the Kd values is PubChem BioAssay AID1552 (Sanford-Burnham Center for Chemical Genomics, 2009).

Calls of active or inactive are those of the source. No rule for the calls is given here.

This assay addresses Ubiquitin-conjugating enzyme E2 N (Homo sapiens) (UniProt P61088). Put plainly: UBE2N binders by NMR, biophysical, purified protein (AID 1552). To be noted: NMR binding to purified UBE2N.

Ubiquitin-conjugating enzyme E2 N (Homo sapiens), sequence (P61088 whole entry, looked up): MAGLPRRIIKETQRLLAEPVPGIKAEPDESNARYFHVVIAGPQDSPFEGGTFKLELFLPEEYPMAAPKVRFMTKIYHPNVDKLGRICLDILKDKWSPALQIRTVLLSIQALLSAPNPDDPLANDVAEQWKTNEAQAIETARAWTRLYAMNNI

Turning to `O=C(NC1CCS(=O)(=O)C1)C1CCCCC1` (stereo not given), the Kd is > 4 mM (inactive).

Turning to `Cc1cc(=O)cc(C)n1-c1ccccc1N1CCOCC1`, the Kd is > 4 mM (inactive).

As to `C=C1C[C@]23C[C@@]1(O)CC[C@H]2[C@@]12C=C[C@H](O)C(C)(C(=O)O1)[C@H]2[C@@H]3C(=O)O`, the Kd is > 4 mM (inactive).

Regarding `S=C(c1ccc2c(c1)OCO2)N1CCCC1`, the Kd is > 4 mM (inactive).

`O=C(O)c1cc(O)c2c(c1)[C@@H]([C@H]1c3cc(C(=O)O)cc(O)c3C(=O)c3c(O[C@H]4O[C@H](CO)[C@@H](O)[C@H](O)[C@H]4O)cccc31)c1cccc(O[C@H]3O[C@H](CO)[C@@H](O)[C@H](O)[C@H]3O)c1C2=O`: the Kd was > 4 mM (inactive).

Turning to `O=C1C[C@@H](c2ccccc2)Oc2cc(O)cc(O)c21`, the Kd is > 4 mM (inactive).

Regarding `COc1cccc(-c2nc(-c3ccccn3)no2)c1OC`, the Kd is > 4 mM (inactive).

For `NCc1csc(-c2cccs2)n1`, the Kd was > 4 mM (inactive).

As for `O=[N+]([O-])c1cccc(-c2c[n+](=O)c3c(n2[O-])CCC3)c1`, the Kd was > 4 mM (inactive).

On to `COC(=O)C[C@@H]1C2(C)C(=O)[C@@H](CC3=C4CC(=O)O[C@@H](c5ccoc5)[C@]4(C)CCC32)[C@H](OC(C)=O)C1(C)C` (stereo not given in full), for which the Kd was > 4 mM (inactive).

Take `CCc1ccccc1OCc1nnc(N)s1`: the Kd was > 4 mM (inactive).

As for `NC(=O)C1CCN(Cc2ccccc2)CC1`, the Kd was > 4 mM (inactive).

For `Cn1c(=O)c2c(ncn2CCNC2=NCCC2)n(C)c1=O`, the Kd was > 4 mM (inactive).

In the case of `O=C(c1cccnc1Cl)N1CCOCC1`, the Kd was > 4 mM (inactive).

For `Nc1ccc(-c2csnn2)cc1`, the Kd is > 4 mM (inactive).

Consider `NCc1ccc2c(c1)CCO2`, for which the Kd was > 4 mM (inactive).

As for `NS(=O)(=O)c1ccc(NC(=O)/C=C\C(=O)O)cc1`, the Kd is > 4 mM (inactive).

Turning to `CC(=O)c1sc(NC(=O)C=C(C)C)nc1C`, the Kd is > 4 mM (inactive).

`Nc1ccc(-n2cccn2)cc1`: the Kd is > 4 mM (inactive).

Take `Cn1c(=O)c2ccccc2n(Cc2ccccc2F)c1=O`: the Kd is > 4 mM (inactive).

For the molecule `CC(=O)Nc1cccc(N(C)S(C)(=O)=O)c1`, the Kd was > 4 mM (inactive).

For the molecule `C=C1C([C@]2(C)C(CC(=O)OC)[C@@](C)(COC(C)=O)OC(=O)C[C@@H]2OC(C)=O)[C@@H](OC=O)[C@H](OC(=O)C(O)C(C)CC)[C@@]2(C)[C@H](c3ccoc3)CC(=O)C12O` (stereo not given in full), the Kd is > 4 mM (inactive).

Take `Cc1nc2nc(Cc3ccccc3)nn2c(C)c1Cl`: the Kd is > 4 mM (inactive).

In the case of `O=C(O)c1cccc(N2C(=O)C3CC=CCC3C2=O)c1` (stereo not given), the Kd is > 4 mM (inactive).

With `C[C@H]1C[C@@H](O)[C@]2(O)[C@@]13CC(=O)OC[C@@]2(C)[C@](C)(O)C(=O)C3`, the Kd is > 4 mM (inactive).

For `O=C(c1ccccc1)N1CCNCC1`, the Kd is > 4 mM (inactive).

In the case of `CCOC(=O)c1cnn2ccccc12`, the Kd is > 4 mM (inactive).

On to `O=C(Nc1ccc2c(c1)OCO2)c1cccs1`, for which the Kd was > 4 mM (inactive).

As for `O=C(NCCO)c1cc2ccccc2cc1O`, the Kd is > 4 mM (inactive).

Consider `COc1cc(C(=O)O[C@H]2CC[C@@]3(C)[C@@H]4CC[C@H]5[C@]6(O)C[C@H](O)[C@@]7(O)[C@@H](CN8C[C@@H](C)CC[C@H]8[C@@]7(C)O)[C@]6(O)C[C@@]53OC24O)cc(OC)c1OC`, for which the Kd was > 4 mM (inactive).

With `C[n+]1ccn(C/C(N)=N/O)c1`, the Kd was > 4 mM (inactive).

For `Cc1cc(Cl)ccc1NC(=O)C(N)=O`, the Kd was > 4 mM (inactive).

Take `CS(=O)(=O)Nc1nnc(Cc2ccccc2)s1`: the Kd was > 4 mM (inactive).

Take `O=C(NCc1ccc2c(c1)OCO2)c1cccs1`: the Kd is > 4 mM (inactive).

On to `CSc1ccccc1NC(=O)c1ccco1`, for which the Kd was > 4 mM (inactive).

Regarding `Cc1ccc(CN2C3=NC(=O)CN3c3ccccc32)cc1`, the Kd was > 4 mM (inactive).

`Cc1noc(C)c1C(=O)N1CCC2(CC1)OCCO2`: the Kd was > 4 mM (inactive).

On to `O=C1NCC(=O)N2CCc3ccccc3C12` (stereo not given), for which the Kd is > 4 mM (inactive).

As to `Cc1n[nH]c(=O)nc1N1CCN(c2ccccc2)CC1`, the Kd is > 4 mM (inactive).

As for `O=C(O)c1ccc(NC(=O)c2cccs2)cc1`, the Kd was > 4 mM (inactive).

With `O=C1CSC(=S)N1Cc1cccnc1`, the Kd is > 4 mM (inactive).

For the molecule `Cc1nc2ccccc2c2c1C(=O)N(C)C2=O`, the Kd is > 4 mM (inactive).

With `CC(=O)OC1CCC2(C)C3CC(=O)C4(C)C(CC5OC6(CCC(C)CO6)[C@@H](C)C54)C3CC[C@H]2C1` (stereo not given in full), the Kd is > 4 mM (inactive).

For `OCC1COc2ccccc2O1` (stereo not given), the Kd is > 4 mM (inactive).

Consider `Oc1cccc(N2CCOCC2)c1`, for which the Kd is > 4 mM (inactive).

Consider `COc1c(O)cccc1O`, for which the Kd is > 4 mM (inactive).

In the case of `COc1ccc(-c2nnc(-c3ccc(N)cc3)o2)cc1`, the Kd is > 4 mM (inactive).

For the molecule `C=C[C@H]1CN2CC[C@H]1C[C@@H]2[C@H](O)c1ccnc2ccccc12`, the Kd is > 4 mM (inactive).

With `O=C1NC(=O)C(Cc2cccs2)C(=O)N1`, the Kd is > 4 mM (inactive).

For the molecule `OCc1ccccc1N1CCOCC1`, the Kd is > 4 mM (inactive).

As to `C=CCCCCCCCCCCCc1ccco1`, the Kd was > 4 mM (inactive).

Consider `CN(C)C(=O)CSc1cccc2cccnc12`, for which the Kd is > 4 mM (inactive).

In the case of `O=c1c(-c2ccccc2)coc2cc(O)cc(O)c12`, the Kd was > 4 mM (inactive).

As to `O=c1/c(=C/c2ccccc2F)sc2ncnn12`, the Kd was > 4 mM (inactive).

Turning to `NC(=O)c1ccc(N2C(=O)C=CC2=O)cc1Cl`, the Kd is > 4 mM (inactive).

`O=C(NCc1cccnc1)c1ccccn1`: the Kd is > 4 mM (inactive).

For `O=C(Nc1ccccc1)C(=O)NC1CC1`, the Kd was > 4 mM (inactive).

For the molecule `Cc1cc(O)c(NC(=O)c2ccco2)cc1C`, the Kd was > 4 mM (inactive).

`CCc1noc(C)c1C(=O)N1CCCC1`: the Kd is > 4 mM (inactive).

Take `O=C(O)c1cccnc1Oc1ccccc1`: the Kd is > 4 mM (inactive).

As for `Cc1ccc(NC(=O)CC2NCCNC2=O)c(C)c1` (stereo not given), the Kd is > 4 mM (inactive).

In the case of `O=[N+]([O-])c1cccc(CN2CCC(O)CC2)c1`, the Kd was > 4 mM (inactive).

As to `C=C[C@H]1CN2CC[C@H]1C[C@H]2[C@H](O)c1ccnc2ccccc12`, the Kd is > 4 mM (inactive).

Take `Cc1occc1C(=O)NC1CCN(C)CC1`: the Kd was > 4 mM (inactive).

For the molecule `CN1CCC(NC(=O)C2CCCO2)CC1` (stereo not given), the Kd was > 4 mM (inactive).

Consider `Cn1ncc(N2CCOCC2)c(Cl)c1=O`, for which the Kd is > 4 mM (inactive).

For the molecule `NC(=O)CNC(=O)c1ccccc1`, the Kd was > 4 mM (inactive).

In the case of `NCc1cccc2c1OCCO2`, the Kd is > 4 mM (inactive).

For `O=c1cc(-c2ccccc2)oc2cc(O)cc(O)c12`, the Kd was > 4 mM (inactive).

On to `COC(=O)c1cccc(C(F)(F)F)c1`, for which the Kd is > 4 mM (inactive).

On to `C(=C\c1ccccc1)/C=N/n1cnnc1`, for which the Kd is > 4 mM (inactive).

As for `CN=C(c1ccc([N+](=O)[O-])cc1)N(C)C`, the Kd is > 4 mM (inactive).

With `Fc1cccc(F)c1CN1CCN(c2ncccn2)CC1`, the Kd is > 4 mM (inactive).

With `CC[C@H](CCC(C)[C@H]1CCC2C3CCC4C[C@@H](O)CC[C@]4(C)C3CC[C@@]21C)C(C)C` (stereo not given in full), the Kd is > 4 mM (inactive).

For the molecule `CC1=CCCC2C1(C)CCC(C)C2(C)CC/C(C)=C/C[n+]1cn(C)c2c(N)ncnc21` (stereo not given), the Kd was > 4 mM (inactive).

As to `Cc1ccc(SCCN2C(=O)NC(C)(C)C2=O)cc1`, the Kd was > 4 mM (inactive).

On to `O=C(Nn1cnnc1)c1csc2c1CCCC2`, for which the Kd was > 4 mM (inactive).

On to `Cc1cc2c(=O)n(C)c(SCC(N)=O)nc2s1`, for which the Kd was > 4 mM (inactive).

For `CC(=O)Nc1c(C)n(C)n(-c2ccccc2)c1=O`, the Kd was > 4 mM (inactive).

As for `Cc1onc(-c2ccccc2)c1C(=O)O`, the Kd was > 4 mM (inactive).

As to `O=C1CNc2cc(C(=O)O)ccc2N1`, the Kd was > 4 mM (inactive).

Take `OCc1ccc(-n2cccn2)cc1`: the Kd is > 4 mM (inactive).

On to `NCc1cc2ccccc2s1`, for which the Kd is > 4 mM (inactive).

On to `CNC(=S)Nc1ccc(C(=O)O)cc1`, for which the Kd is > 4 mM (inactive).

`COC(=O)c1ccc2nsnc2c1`: the Kd is > 4 mM (inactive).

Regarding `O=C(O)C1Cc2c([nH]c3ccccc23)CN1` (stereo not given), the Kd was > 4 mM (inactive).

On to `COc1cc(-c2csc(C)n2)ccc1O`, for which the Kd was > 4 mM (inactive).

For `NC(=O)C1CCN(C(=O)c2ccccc2F)CC1`, the Kd was > 4 mM (inactive).

Turning to `C#CCCCCCCCCCCCc1ccco1`, the Kd is > 4 mM (inactive).

For `CC(C)CCCC(C)C1CCC2C3=CC[C@H]4C[C@@H](O)CC[C@]4(C)C3CC[C@@]21C` (stereo not given in full), the Kd is > 4 mM (inactive).

With `O=c1ccc(=O)n(CN2CCc3ccccc3C2)[nH]1`, the Kd was > 4 mM (inactive).

For `C=CC(C1=CC(=O)C(OC)=CC1=O)c1ccc(O)cc1` (stereo not given), the Kd was > 4 mM (inactive).

Regarding `Cc1nc(SCC#N)c2c(C)c(C)sc2n1`, the Kd is > 4 mM (inactive).

Consider `C#CCCCCCCCCCCCC(=O)CC(O)COC(C)=O` (stereo not given), for which the Kd was > 4 mM (inactive).

Consider `O=C1NC(=S)N/C1=C\c1ccccc1`, for which the Kd is > 4 mM (inactive).

Turning to `O=C(c1ccc(F)cc1)N1CCOCC1`, the Kd was > 4 mM (inactive).

As to `NC(=O)CCn1c(=O)oc2ccccc21`, the Kd was > 4 mM (inactive).

`O=C(Nc1ccon1)c1ccc(Br)o1`: the Kd was > 4 mM (inactive).

For `Cc1c(C(=O)Nc2cnccn2)oc2ccccc12`, the Kd is > 4 mM (inactive).

Take `Cc1nnc(NCc2cccnc2)[nH]c1=O`: the Kd was > 4 mM (inactive).

Usually Kd stands for the constant that tells how readily two partners part at equilibrium.
